Source: US20120302609A1, “Pyrazolines for the Modulation of PKM2” (Dynamix Pharmaceuticals LTD., priority 2011, published 2012)

Key:
[1] = test system: H1299 (Non-small cell lung carcinoma cell line); assay: Cell proliferation index assay, Assay Protocol II (Fluofarma, flow cytometry); format: cell-based; settings: Homo sapiens, NCI-H1299
Procedure: In a second assay to determine the inhibition of cell proliferation by a test compound, cell proliferation of the cell line of interest was measured by a cell proliferation index assay using Fluofarma (www.fluofarma.com) based technology. This assay is based on the dilution rate of a fluorescent membrane marker, which is a direct function of the number of cell divisions. Briefly, the assay is performed by loading the cells with a non-toxic fluorescent phospholipid analog before the seeding. […] Flow cytometry analysis of the fluorescent probe is performed after the loading of the cells both prior to, as well as after treatment with various concentrations of the test compound. The dilution rate of the fluorescent probe at the single cell level is directly correlated to the number of cell divisions.

[2] = target: T1, PKM2, human recombinant (Homo sapiens, UniProt P14618); assay: PKM2 enzymatic activity assay (Kinase-Glo Plus luminescence); format: biochemical;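 on Max activity Group: percent increase over no-compound signal after subtracting the no-PKM2 background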
T1 construct: purchased BPS 50295
Procedure: PKM2 performs the following enzymatic reaction, where the PKM2 substrates, PEP (phosphoenolpyruvate) and ADP, are converted to pyruvate and ATP as follows:
All of the enzymatic reactions were conducted in duplicates at room temperature for 1 hour in a 50 μL mixture containing: • PKM2 assay buffer (50 mM Imidazole, pH 7.2; 7 mM MgCl2; 50 mM KCl; 0.01% Tween; • and 0.05% BSA), 0.1 mM ADP, 0.5 mM PEP, 0.1 nM PKM2 enzyme (PKM2, human recombinant (BPS catalog number 50295)) and the indicated test compound. Fructose 1,6 biphosphat e, (FBP (Sigma)) was used as a positive control for activation at concentration of 0.5 mM. After enzymatic reactions, 50 μL of Kinase-Glo® Plus reagent (Promega kit) was added to each well and luminescence was measured using a BioTek Synergy™ 2 microplate reader.
PKM2 activity assays were performed in duplicates at each concentration. The luminescence data were analyzed using the computer software, GraphPad PRISM®. In the absence of the compound, the luminescence was defined as 0% activity. The percent activity in the presence of each compound was calculated according to the following equation:
% Activity=[(L−Lb)/(Lt−Lb)−1]×100%
where L=the luminescence in the presence of the test compound, Lb=the luminescence in the absence of PKM2, and Lt=the luminescence intensity in the absence of the test compound. The % activity values versus a series of compound concentrations were plotted using non-linear regression analysis of Sigmoidal dose-response curve generated with the equation Y=B+(T−B)/1+10^((LogEC50-X)×Hill Slope), where Y=percent activity, B=minimum percent activity, T=maximum percent activity, X=logarithm of compound and Hill Slope=slope factor or Hill coefficient. The AC50 values, shown in Table 2 were determined for the indicated test compounds as the concentration causing a half-maximal percent activity.

[3] = test system: H1299 Human Non-Small Cell Lung Carcinoma; assay: H1299 human non-small cell lung carcinoma nude mouse xenograft model, tumor growth delay; format: in vivo, mice; settings: for MTV (n) Day 28: median tumor volume of animals not at endpoint (n in brackets)
Procedure: (§1) The animals were fed ad libitum water (reverse osmosis, 1 ppm Cl) and NIH 31 Modified and Irradiated Lab Diet® consisting of 18.0% crude protein, 5.0% crude fat, and 5.0% crude fiber. The mice were housed on irradiated Enrich-o′ Cobs™ Laboratory Animal Bedding in static microisolators on a 12-hour light cycle at 20-22° C. (68-72° F.) and 40-60% humidity.
H1299 (NCI-H1299) NSCLC cells were obtained from the American Type Culture Collection, which reports the cell line to have originated from a lymph node metastasis and to lack p53 expression. The cell line was maintained as exponentially growing cultures in RPMI-1640 medium supplemented with 10% fetal bovine serum, 2 mM glutamine, 100 units/mL penicillin G sodium, 100 μg/mL streptomycin sulfate, 25 μg/mL gentamicin, 10 mM HEPES, and 0.075% sodium bicarbonate. The tumor cells were cultured in tissue culture flasks in a humidified incubator at 37° C., in an atmosphere of 5% CO2 and 95% air.
H1299 tumor cells were harvested during log phase growth and suspended in cold PBS. Each nude mouse was inoculated subcutaneously in the right flank with 0.2 mL of the cell suspension (1×10^7 cells). The tumors were periodically calipered in two dimensions to monitor size as the mean volume approached the desired 90-130 mm^3 range. Tumor size was calculated by the following formula:
where w=width and l=length, in mm, of the tumor. Tumor weight may be estimated with the assumption that 1 mg is equivalent to 1 mm^3 of tumor volume.
Compound 13A (MW 467.51, code-named XT26) was provided as a powder stored at −20° C., and protected from light during storage and handling. Dosing suspensions, in 0.5% carboxymethyl cellulose and 1% Tween® 80 in deionized water (Vehicle), were prepared fresh for each dose, and kept at 4° C. post formulation. Gemcitabine (Gemzar®, Lilly, 38 mg/mL, Lot # A866884A) was stored at room temperature. A fresh 12 mg/mL gemcitabine dosing solution was prepared on each treatment day by diluting an aliquot of the stock solution with saline.
(§2) Dosing began on D1 in four groups of mice (n=12/group in Groups 1, 3, and 4; n=6 in Group 2). XT26 and its vehicle were administered intraperitoneally (i.p.) twice daily for 28 days (b.i.d.×28), starting with the p.m. dose on D1 and ending with the a.m. dose on D29. Gemcitabine was administered i.p. once daily at three-day intervals for four doses (q3d×4). In all groups, the dosing volume of 10 ml/kg (0.2 ml/20 g mouse) was scaled to the weight of each individual animal, as measured twice weekly.
Group 1 mice received the XT26 vehicle b.i.d.×28, and served as the controls for the study. Group 2 received gemcitabine at 120 mg/kg. Group 3 was to receive XT26 at 100 mg/kg b.i.d.×28; on D21, four mice (Animals 1, 3, 4, and 5) erroneously received 200 mg/kg XT26 for their a.m. dose. […] Group 4 dosing at 200 mg/kg resumed on D17 on a qd (once daily)×13 dosing schedule. Because of a scheduling error, the D19 dose for Group 4 mice was omitted; qd dosing occurred on Days 17, 18, and 20-28.
Tumors were calipered twice weekly for the duration of the study, and each animal was euthanized when its neoplasm reached the predetermined endpoint volume (1200 mm^3) or at the end of the study, whichever came first. Animals that exited the study for tumor growth were documented as euthanized for tumor progression (TP), with the date of euthanasia. The time to endpoint (TTE) for each mouse was calculated by the following equation: […]
where TTE is expressed in days, endpoint volume is expressed in mm^3, b is the intercept, and m is the slope of the line obtained by linear regression of a log-transformed tumor growth data set.

[4] = H1299 nude mouse xenograft study, toxicity (body weight, deaths, organ weights); format: in vivo, mice; settings: Gemcitabine 120 mg/kg ip q3d × 4
Procedure: as §1, §2
Group 1 mice received the XT26 vehicle b.i.d.×28, and served as the controls for the study. Group 2 received gemcitabine at 120 mg/kg. Group 3 was to receive XT26 at 100 mg/kg b.i.d.×28; on D21, four mice (Animals 1, 3, 4, and 5) erroneously received 200 mg/kg XT26 for their a.m. dose. Group 4 was to receive XT26 at 200 mg/kg b.i.d.×28, but dosing stopped on D9 (b.i.d.×8) because of toxicity. Group 4 dosing at 200 mg/kg resumed on D17 on a qd (once daily)×13 dosing schedule. Because of a scheduling error, the D19 dose for Group 4 mice was omitted; qd dosing occurred on Days 17, 18, and 20-28.
Animals were weighed daily on D1-5, then twice weekly until the completion of the study. The mice were observed frequently for overt signs of any adverse, treatment-related side effects.
On D10, both kidneys and the liver were harvested from each euthanized Group 4 animal. Each organ was weighed separately, fixed overnight in 10% neutral buffered formalin, and transferred to 70% ethanol.

[5] = Gemcitabine 120 mg/kg ip q3d × 4
[6] = Group 1 vs 2: Gemcitabine ip q3d × 4, 120 mg/kg

T1 sequence (P14618 whole entry): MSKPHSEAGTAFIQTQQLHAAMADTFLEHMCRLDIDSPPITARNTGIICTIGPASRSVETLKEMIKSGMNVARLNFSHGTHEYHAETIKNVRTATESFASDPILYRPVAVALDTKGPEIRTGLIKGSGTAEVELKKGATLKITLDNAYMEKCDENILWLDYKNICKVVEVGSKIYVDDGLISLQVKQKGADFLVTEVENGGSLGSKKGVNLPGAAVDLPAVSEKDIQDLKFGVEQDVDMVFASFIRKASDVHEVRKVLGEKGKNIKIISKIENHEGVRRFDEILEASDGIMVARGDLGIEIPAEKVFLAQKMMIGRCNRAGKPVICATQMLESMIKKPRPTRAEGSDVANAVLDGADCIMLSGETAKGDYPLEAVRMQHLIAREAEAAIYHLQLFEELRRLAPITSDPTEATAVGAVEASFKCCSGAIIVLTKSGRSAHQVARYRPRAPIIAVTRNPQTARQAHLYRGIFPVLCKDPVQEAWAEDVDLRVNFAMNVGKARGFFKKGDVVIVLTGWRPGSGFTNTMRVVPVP

COc1ccc(C2CC(c3ccc(NS(=O)(=O)c4ccc(F)cc4)cc3)=NN2C(C)=O)cc1 (racemic) [Compound 6A, N-(4-(1-acetyl-5-(4-methoxyphenyl)-4,5-dihydro-1H-pyrazol-3-yl)phenyl)-4-fluorobenzenesulfonamide]
IC50 [1]: < 40 µM | AC50 ([2]; 0.1 nM PKM2, 0.1 mM ADP, 0.5 mM PEP, 1 hour, room temperature, read-out: AC50 group): ≤ 1 µM | Emax ([2]; 1 h, maximum percent activity, luminescence without compound = 0% activity, read-out: Max activity Group): 130 to 200%

COc1ccc(C2CC(c3ccc(NS(=O)(=O)c4c(F)cccc4F)cc3)=NN2C(C)=O)cc1 (stereo not drawn) [Compound 61A, N-(4-(1-acetyl-5-(4-methoxyphenyl)-4,5-dihydro-1H-pyrazol-3-yl)phenyl)-2,6-difluorobenzenesulfonamide]
IC50 [1]: < 40 µM

Nc1ccn([C@@H]2O[C@H](CO)[C@@H](O)C2(F)F)c(=O)n1 [Gemcitabine, gemcitabine, reference compound]
% TGD [3, 5]: 50% | Regressions CR [3, 5]: 0 | Regressions PR [3, 5]: 0 | Regressions TFS [3, 5]: 0 | Median TTE ([3]; Gemcitabine 120 mg/kg ip q3d × 4, endpoint 1200 mm^3, 28-day study): 28.0 days | MTV (n) Day 28 [3, 5]: 600 (5) mm^3 | MTV (n) Day 28 ([3]; Gemcitabine 120 mg/kg ip q3d × 4, listed as gemcitabine): 600 mm^3 | T − C ([3]; Gemcitabine 120 mg/kg ip q3d × 4, vs Group 1 vehicle): 9.3 days | Median survival ([3]; Gemcitabine ip q3d × 4, 120 mg/kg (Column B = treated group)): Undefined | Are the survival curves sig different? [3, 6]: Yes | Hazard Ratio [3, 6]: 11.48 | response of tumor model to therapy ([3]; standard 120 mg/kg gemcitabine therapy): responded moderately well | Deaths NTR ([4]; non-treatment-related deaths): 0 | Deaths TR ([4]; treatment-related deaths): 0
